Earlier results, collected in patent US5186913A, “Tungsten-188/carrier-free rhenium-188 perrhenic acid generator system” (Martin Marietta Energy Systems, Inc., priority 1991, dated 1993).
Where two headings read alike, the source gives them in different places.

How the values were obtained:
[1] = not given; remark: listed apart in the source

In the case of `[Re]` [Re, Rhenium], the “distribution coefficient Dv (amount absorbed per liter resin bed/amount per liter solution)” value (0.1M HNO3) is given as 1×10^3 and the “distribution coefficient Dv (amount absorbed per liter resin bed/amount per liter solution)” value (6M HNO3) is given as ~ 1.
In the case of `[188Re]` [Re-188, Rhenium-188], the “energy of gamma photon” value ([1]; gamma emission) is given as 155 keV, the “abundance of gamma photon” value ([1]; gamma photon of 155 keV) is given as “about 15%” and the half-life ([1]; radioactive decay) is given as 0.704 days. For the same compound, the “average energy of β emission” value ([1]; β emission) was 764 keV.
In the case of `[188W]` [W-188, tungsten-188], the t1/2 ([1]; radioactive decay, parent isotope) is given as 69.4 days.
